From ChEMBL document CHEMBL4152365, “Discovery of DS-6930, a potent selective PPARγ modulator. Part I: Lead identification” (Bioorg Med Chem, 2018)
Converted amounts (≈) assume the structure as drawn. The source made the active and inactive calls. No cut-off for these calls is given here.

Experiments:
[1] = Metabolic stability in rat liver microsomes after 0.5 hrs; format: ADME, microsome; conditions: read-out: Stability
[2] = Plasma concentration in hyperglycemic KK/Ta mouse at 30 mg/kg/day, po administered through diet for 3 days measured on day 3 post last dose; format: ADME, organism-based
[3] = test system: Mus musculus; assay: Toxicity in hyperglycemic KK/Ta mouse assessed as body weight gain at 30 mg/kg/day, po administered through diet for 3 days relative to control; format: organism-based; conditions: in vivo, 72 h
[4] = test system: Mus musculus; assay: Glucose-lowering effect in hyperglycemic KK/Ta mouse assessed as reduction in plasma glucose level at 30 mg/kg/day, po administered through diet for 3 days relative to control; format: functional; design: scale not given: the % may be the effect or the level left
[5] = target: T1, Peroxisome proliferator-activated receptor gamma (Homo sapiens, UniProt P37231); assay: Agonist activity at recombinant human GAL4-DBD fused PPARgamma LBD expressed in COS7 cells after 24 hrs by luciferase reporter gene assay; format: cell-based
T1 sequence (P37231 whole entry): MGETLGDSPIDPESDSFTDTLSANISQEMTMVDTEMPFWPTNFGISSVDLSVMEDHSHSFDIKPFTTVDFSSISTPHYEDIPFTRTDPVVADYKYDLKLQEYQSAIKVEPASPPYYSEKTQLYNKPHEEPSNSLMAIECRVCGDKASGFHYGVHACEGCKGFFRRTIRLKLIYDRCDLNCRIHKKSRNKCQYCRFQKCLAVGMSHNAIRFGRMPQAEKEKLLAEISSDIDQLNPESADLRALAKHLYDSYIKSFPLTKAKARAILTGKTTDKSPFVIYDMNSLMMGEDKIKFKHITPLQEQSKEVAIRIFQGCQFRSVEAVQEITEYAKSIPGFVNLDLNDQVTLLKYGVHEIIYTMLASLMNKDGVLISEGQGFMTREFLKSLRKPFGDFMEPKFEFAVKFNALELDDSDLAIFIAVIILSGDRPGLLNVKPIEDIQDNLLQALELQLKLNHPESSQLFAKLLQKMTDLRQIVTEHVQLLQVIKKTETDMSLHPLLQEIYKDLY

[6] = target: T2, Peroxisome proliferator-activated receptor gamma (Homo sapiens) (UniProt P37231); assay: Agonist activity at recombinant human GAL4-DBD fused PPARgamma LBD expressed in COS7 cells at 10 uM after 24 hrs by luciferase reporter gene assay relative to rosiglitazone; format: cell-based
T2 sequence (whole entry): T1 sequence (P37231 whole entry)

[7] = target: T3, Peroxisome proliferator-activated receptor alpha (Homo sapiens, UniProt Q07869); assay: Agonist activity at recombinant human GAL4-DBD fused PPARalpha LBD expressed in COS7 cells after 24 hrs by luciferase reporter gene assay; format: cell-based
T3 sequence (Q07869 whole entry): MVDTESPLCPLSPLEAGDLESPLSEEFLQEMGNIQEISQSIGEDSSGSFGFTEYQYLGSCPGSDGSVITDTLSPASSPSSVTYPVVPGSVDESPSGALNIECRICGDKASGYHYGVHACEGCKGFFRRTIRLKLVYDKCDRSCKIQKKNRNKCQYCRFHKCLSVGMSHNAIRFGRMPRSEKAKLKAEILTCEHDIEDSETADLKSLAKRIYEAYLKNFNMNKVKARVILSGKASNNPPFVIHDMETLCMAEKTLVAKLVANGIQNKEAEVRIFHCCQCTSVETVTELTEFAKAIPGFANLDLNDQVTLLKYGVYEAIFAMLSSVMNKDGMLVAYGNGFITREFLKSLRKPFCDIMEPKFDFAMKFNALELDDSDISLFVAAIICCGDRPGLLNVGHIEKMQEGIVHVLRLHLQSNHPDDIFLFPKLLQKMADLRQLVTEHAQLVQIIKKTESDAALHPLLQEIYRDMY

[8] = target: T4, Peroxisome proliferator-activated receptor alpha (Homo sapiens) (UniProt Q07869); assay: Agonist activity at recombinant human GAL4-DBD fused PPARalpha LBD expressed in COS7 cells at 10 uM after 24 hrs by luciferase reporter gene assay relative to 2-(4-tert-Butylphenoxy)-3-[4-[2-[(4-pyridin-2-ylbenzoyl)amino]ethoxy]; format: cell-based
T4 sequence (whole entry): T3 sequence (Q07869 whole entry)

[9] = 1-octanol/PBS distribution co-efficient, log D of the compound at […] at pH 7.4 after 30 mins by HPLC-MS/MS analysis; format: physicochemical
[10] = Aqueous thermodynamic solubility of the compound in pH 6.8 solution up to 4 hrs by HPLC-UV analysis; format: physicochemical; conditions: read-out: Therm_solubility
[11] = Metabolic stability in human liver microsomes after 0.5 hrs; format: ADME, microsome; conditions: read-out: Stability
[12] = test system: Rattus norvegicus; assay: Glucose-lowering effect in Zucker diabetic fatty rat assessed as reduction in plasma glucose level at 3 mg/kg, po administered once daily for 14 days measured on day 14 post last dose relative to control; format: functional; design: scale not given: the % may be the effect or the level left
[13] = test system: Rattus norvegicus; assay: Toxicity in Zucker diabetic fatty rat assessed as body weight gain at 3 mg/kg, po administered once daily for 14 days relative to control; format: organism-based; conditions: in vivo, 336 h
[14] = Cmax in Zucker diabetic fatty rat at 3 mg/kg, po dosed once daily for 14 days and followed by additional administeration on day 15; format: ADME, organism-based; design: dose 3 mg/kg, route oral; conditions: in vivo
[15] = Tmax in Zucker diabetic fatty rat at 3 mg/kg, po dosed once daily for 14 days and followed by additional administeration on day 15; format: ADME, organism-based; conditions: in vivo
[16] = AUC (0 to 24 hrs) in Zucker diabetic fatty rat at 3 mg/kg, po dosed once daily for 14 days and followed by additional administeration on day 15; format: ADME, organism-based; design: dose 3 mg/kg, time < 24 hr, route oral; conditions: in vivo
[17] = target: T5, Peroxisome proliferator-activated receptor delta (Homo sapiens) (UniProt Q03181); assay: Agonist activity at PPARdelta (unknown origin) at 10 uM
T5 sequence (whole entry): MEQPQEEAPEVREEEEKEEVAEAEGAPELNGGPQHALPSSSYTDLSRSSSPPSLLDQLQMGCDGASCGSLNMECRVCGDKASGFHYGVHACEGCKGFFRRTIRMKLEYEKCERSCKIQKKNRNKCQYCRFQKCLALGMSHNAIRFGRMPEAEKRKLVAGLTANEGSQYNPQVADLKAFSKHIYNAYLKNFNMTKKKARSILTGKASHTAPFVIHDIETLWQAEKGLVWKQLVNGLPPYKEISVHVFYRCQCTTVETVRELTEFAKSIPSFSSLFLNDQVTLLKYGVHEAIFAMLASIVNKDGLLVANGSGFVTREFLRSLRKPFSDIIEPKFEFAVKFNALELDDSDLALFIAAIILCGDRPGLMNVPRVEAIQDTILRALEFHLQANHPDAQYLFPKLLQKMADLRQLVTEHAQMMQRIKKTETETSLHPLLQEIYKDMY

[18] = Metabolic stability in cynomolgus monkey liver microsomes after 0.5 hrs; format: ADME, Macaca fascicularis, microsome; conditions: read-out: Stability
[19] = Cmax in cynomolgus monkey at 3 mg/kg, po by LC-MS/MS analysis; format: ADME, organism-based, Macaca fascicularis; design: dose 3 mg/kg, route oral; conditions: in vivo
[20] = Tmax in cynomolgus monkey at 3 mg/kg, po by LC-MS/MS analysis; format: ADME, organism-based, Macaca fascicularis; conditions: in vivo
[21] = Half life in cynomolgus monkey at 3 mg/kg, po by LC-MS/MS analysis; format: ADME, organism-based, Macaca fascicularis; conditions: in vivo
[22] = AUClast in cynomolgus monkey at 3 mg/kg, po by LC-MS/MS analysis; format: ADME, organism-based, Macaca fascicularis; design: dose 3 mg/kg, route oral, time 0 - last; conditions: in vivo
[23] = Oral bioavailability in cynomolgus monkey at 3 mg/kg by LC-MS/MS analysis; format: ADME, organism-based, Macaca fascicularis; conditions: in vivo
[24] = Clearance in cynomolgus monkey at 1 mg/kg, iv by LC-MS/MS analysis; format: ADME, organism-based, Macaca fascicularis; conditions: in vivo
[25] = Volume of distribution at steady state in cynomolgus monkey at 1 mg/kg, iv by LC-MS/MS analysis; format: ADME, organism-based, Macaca fascicularis; conditions: in vivo, read-out: Vdss

SMILES	concentration at 72 h [2]	Activity [3]	Activity [4]	EC50 [5]	Emax [6]	EC50 [7]	Emax [8]	logD at 0.5 h [9]	solubility thermodynamic at 4 h [10]	remaining at 0.5 h [11]	Activity [17]	further results
Cc1cc(F)ccc1Oc1ccc2nc(COc3cccc(C(=O)O)c3)n(C)c2c1	190 ng/mL	2.8%	54.7%	22 nM	66%	> 10 µM	19%	2.5	1.7 µg/mL (≈ 4.18 µM)	59%		remaining at 0.5 h [1]: 47%; Activity [12]: 22%; Activity [13]: 11.9%; Cmax [14]: 42 ng/mL; Tmax [15]: 4 h; AUC at 24 h [16]: 420 ng·h/mL
Cn1c(COc2cccc(C(=O)O)c2)nc2ccc(Oc3ccc(F)cc3)cc21	320 ng/mL	3.4%	56.7%	122 nM	75%	> 10 µM	29%	2	19 µg/mL (≈ 48.4 µM)		inactive	
Cn1c(COc2cccc(C(=O)O)c2)nc2ccc(Oc3cccc(OC(F)(F)F)c3)cc21	370 ng/mL	5.3%	41.9%	113 nM	69%	> 10 µM	17%	3.3	0.9 µg/mL (≈ 1.96 µM)	98%	inactive	
Cc1ccc(Oc2ccc3nc(COc4cccc(C(=O)O)c4)n(C)c3c2)c(F)c1	550 ng/mL	2.5%	53.4%	92 nM	90%	> 10 µM	16%	2.3	0.5 µg/mL (≈ 1.23 µM)	92%		remaining at 0.5 h [1]: 98%; Activity [12]: 61.7%; Activity [13]: 8.5%; Cmax [14]: 300 ng/mL; Tmax [15]: 2.4 h; AUC at 24 h [16]: 3160 ng·h/mL; remaining at 0.5 h [18]: 100%; Cmax [19]: 330 ng/mL; Tmax [20]: 1.5 h; half-life [21]: 966 min; AUC(0-t) [22]: 2870 ng·h/mL; bioavailability [23]: 24%; clearance [24]: 4.16 mL/min/kg; Vd [25]: 1.23 L/kg
COc1ccc(Oc2ccc3nc(COc4cccc(C(=O)O)c4)n(C)c3c2)cc1				307 nM	71%	> 10 µM	7%	1.8	9.3 µg/mL (≈ 23 µM)	100%	inactive	
Cn1c(COc2cccc(C(=O)O)c2)nc2ccc(Oc3ccc(Cl)cc3)cc21		4.1%	34.4%	126 nM	62%	> 10 µM	8%	2.6	2 µg/mL (≈ 4.89 µM)		inactive	
Cl.Cn1c(COc2cccc(C(=O)O)c2)nc2ccc(Oc3cccc(C(F)(F)F)c3)cc21	90 ng/mL	3.8%	45.1%	23 nM	81%		56%	2.8		85%	inactive	
Cn1c(COc2cccc(C(=O)O)c2)nc2ccc(Oc3ccc4c(c3)OCC4)cc21	360 ng/mL	4.8%	41.6%	21 nM	95%	> 10 µM	12%	2	16 µg/mL (≈ 38.4 µM)	62%		remaining at 0.5 h [1]: 79%; Activity [12]: 69.7%; Activity [13]: 15.6%; Cmax [14]: 80 ng/mL; Tmax [15]: 3.2 h; AUC at 24 h [16]: 850 ng·h/mL
Cc1cccc(Oc2ccc3nc(COc4cccc(C(=O)O)c4)n(C)c3c2)c1	90 ng/mL	3.2%	56.9%	79 nM	76%	> 10 µM	19%	2.3	3.8 µg/mL (≈ 9.78 µM)	69%	inactive	
COc1cccc(Oc2ccc3nc(COc4cccc(C(=O)O)c4)n(C)c3c2)c1				235 nM	92%	> 10 µM	30%	1.8	5.4 µg/mL (≈ 13.4 µM)	68%	inactive	
Cc1ccccc1Oc1ccc2nc(COc3cccc(C(=O)O)c3)n(C)c2c1	100 ng/mL	3.7%	26.9%	56 nM	80%	> 10 µM	16%	2.4	2.2 µg/mL (≈ 5.66 µM)	62%	inactive	
Cl.Cn1c(COc2cccc(C(=O)O)c2)nc2ccc(Oc3cccc(Cl)c3)cc21	190 ng/mL	2.8%	59.6%	86 nM	103%		69%	2.7		90%	inactive	
Cn1c(COc2cccc(C(=O)O)c2)nc2ccc(Oc3cccc(F)c3)cc21	1740 ng/mL	3.2%	52.1%	201 nM	75%	> 10 µM	22%	2	2.2 µg/mL (≈ 5.61 µM)	98%	inactive	
COc1ccccc1Oc1ccc2nc(COc3cccc(C(=O)O)c3)n(C)c2c1.Cl				474 nM	60%	> 10 µM	4%	1.3	12 µg/mL	74%	inactive	
